From publication PMC8401265, “Evolutionary Diversification of Host-Targeted Bartonella Effectors Proteins Derived from a Conserved FicTA Toxin-Antitoxin Module” (Microorganisms, 2021)

Biological target: T1, Btr_BepC FIC (Bartonella tribocorum, UniProt A9IWP7)
T1 construct: gene bepC
Assay: X-ray crystallography
Type: binding
Details: active site; pH 6.5 crystals; lysine K150 contacts alpha-phosphate

T1 sequence (A9IWP7 entry or part of it): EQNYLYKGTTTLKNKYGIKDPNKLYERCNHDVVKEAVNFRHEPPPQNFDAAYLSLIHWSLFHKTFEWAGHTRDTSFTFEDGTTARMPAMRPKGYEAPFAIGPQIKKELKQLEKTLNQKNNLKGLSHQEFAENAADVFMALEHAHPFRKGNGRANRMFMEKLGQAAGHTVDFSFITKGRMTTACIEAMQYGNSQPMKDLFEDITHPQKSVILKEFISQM

In the case of `Nc1ncnc2c1ncn2[C@@H]1O[C@H](COP(=O)(O)OP(=O)(O)NP(=O)(O)O)[C@@H](O)[C@H]1O` [AMPPNP], the X-ray crystallography is reported as “the complex of Btr_BepC with AMPPNP (Figure 9A) demonstrates competent tri-phosphate nucleotide binding”.
